Data as given in US6737383B1, “Herbicidal oxadiazolidines” (priority 1999, dated 2004).

How the values were obtained:
[1] = tested on: cocklebur; test: Test B pre/postemergence cocklebur; assay type: in vivo, Xanthium strumarium
How it was run: (§1)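 Test chemicals in a non-phytotoxic solvent mixture with surfactant were sprayed preemergence onto planted seeds and postemergence onto plants 2 to 18 cm tall (1- to 4-leaf stage). After twelve to sixteen days in a greenhouse, injury was visually rated against untreated controls from 0 (no effect) to 10 (complete control).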

[2] = tested on: purple nutsedge; test: Test B pre/postemergence purple nutsedge; assay type: in vivo, Cyperus rotundus
How it was run: as §1

[3] = tested on: surinam grass; test: Test B pre/postemergence surinam grass; assay type: in vivo, Brachiaria decumbens
How it was run: as §1

[4] = tested on: sugar beet; test: Test B pre/postemergence sugar beet; assay type: in vivo, Beta vulgaris
How it was run: as §1

[5] = tested on: blackgrass; test: Test B pre/postemergence blackgrass; assay type: in vivo, Alopecurus myosuroides
How it was run: as §1

[6] = tested on: wild oat; test: Test B pre/postemergence wild oat; assay type: in vivo, Avena fatua
How it was run: as §1

[7] = tested on: soybean; test: Test B pre/postemergence soybean; assay type: in vivo, Glycine max
How it was run: as §1

[8] = tested on: velvetleaf; test: Test B pre/postemergence velvetleaf; assay type: in vivo, Abutilon theophrasti
How it was run: as §1

[9] = tested on: wheat; test: Test B pre/postemergence wheat; assay type: in vivo, Triticum aestivum
How it was run: as §1

[10] = tested on: giant foxtail; test: Test B pre/postemergence giant foxtail; assay type: in vivo, Setaria faberii
How it was run: as §1

[11] = tested on: smallflower flatsedge; test: Test B flood test smallflower flatsedge; assay type: in vivo, Cyperus difformis
How it was run: (§2)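 Plants were grown to the 2-leaf stage before treatment with test chemical, then held in a greenhouse for twelve to sixteen days. Injury was visually rated against untreated controls on a 0–10 scale, where 0 is no effect and 10 is complete control.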

[12] = tested on: duck salad; test: Test B flood test duck salad; assay type: in vivo, Heteranthera limosa
How it was run: as §2

[13] = tested on: crabgrass; test: Test B pre/postemergence crabgrass; assay type: in vivo, Digitaria sanguinalis
How it was run: as §1

[14] = tested on: corn; test: Test B pre/postemergence corn; assay type: in vivo, Zea mays
How it was run: as §1

[15] = tested on: morningglory; test: Test B pre/postemergence morningglory; assay type: in vivo, Ipomoea hederacea
How it was run: as §1

[16] = tested on: rape; test: Test B pre/postemergence rape; assay type: in vivo, Brassica napus
How it was run: as §1

[17] = Postemergence, Rate 125 g/ha, scale 0 to 10, 0 is no effect, 10 is complete control
[18] = Postemergence, Rate 250 g/ha, scale 0 to 10, 0 is no effect, 10 is complete control
[19] = Postemergence, Rate 500 g/ha, scale of 0 to 10 where 0 is no effect and 10 is complete control
[20] = Preemergence, Rate 62 g/ha, scale 0 to 10 (0 no effect, 10 complete control)
[21] = Preemergence, Rate 125 g/ha, scale of 0 to 10 where 0 is no effect and 10 is complete control
[22] = Preemergence, Rate 250 g/ha, scale 0 to 10, 0 is no effect, 10 is complete control
[23] = Preemergence, Rate 500 g/ha, scale 0 to 10, 0 is no effect, 10 is complete control
[24] = Rate 62 g/ha, Postemergence, scale of 0 to 10 where 0 is no effect and 10 is complete control
[25] = Preemergence, Rate 250 g/ha, scale of 0 to 10 where 0 is no effect and 10 is complete control
[26] = Rate 62 g/ha, flood test species, Pre-emergence, visual evaluation after twelve to sixteen days
[27] = Rate 125 g/ha, under heading Pre-emergence, flood test species, visual evaluation after twelve to sixteen days
[28] = Rate 250 g/ha, Pre-emergence, flood-test species, scale 0 to 10, 0 is no effect, 10 is complete control
[29] = Rate 500 g/ha, Pre-emergence, flood test species, scale 0 to 10 (0 no effect, 10 complete control)

## Cc1nc(Cl)sc1C(C)n1c(=O)on(C(=O)N(c2ccc(F)cc2)C(C)C)c1=O (stereo not shown) [Compound 401]
[1]; [17]
  Plant response rating, Cocklebur: 0
[1]; [18]
  Plant response rating, Cocklebur: 0
[1]; [19]
  Cocklebur plant response rating: 1
[1]; [20]
  Plant response rating, Cocklebur: 0
[1]; [21]
  Plant response rating, Cocklebur: 0
[1]; [22]
  Cocklebur plant response rating: 0
[1]; [23]
  Cocklebur plant response rating: 0
[1]; [24]
  Cocklebur plant response rating: 0
[2]; [18]
  Plant response rating, Nutsedge: 0
[2]; [19]
  Nutsedge plant response rating: 0
[2]; [20]
  Plant response rating, Nutsedge: 0
[2]; [21]
  Plant response rating, Nutsedge: 0
[2]; [22]
  Nutsedge plant response rating: 0
[2]; [23]
  Nutsedge plant response rating: 0
[2]; [24]
  Nutsedge plant response rating: 0
[3]; [17]
  Plant response rating, B. signalgrass: 0
[3]; [18]
  Plant response rating, B. signalgrass: 0
[3]; [19]
  B. signalgrass plant response rating: 0
[3]; [20]
  Plant response rating, B. signalgrass: 0
[3]; [21]
  Plant response rating, B. signalgrass: 0
[3]; [25]
  B. signalgrass plant response rating: 0
[3]; Preemergence, Rate 500 g/ha, scale of 0 to 10 where 0 is no effect and 10 is complete control
  B. signalgrass plant response rating: 0
[3]; [24]
  B. signalgrass plant response rating: 0
[4]; [18]
  Plant response rating, Sugarbeets: 0
[4]; [19]
  Sugarbeets plant response rating: 0
[4]; [20]
  Plant response rating, Sugarbeets: 0
[4]; [21]
  Plant response rating, Sugarbeets: 0
[4]; [22]
  Sugarbeets plant response rating: 0
[4]; [23]
  Sugarbeets plant response rating: 0
[4]; [24]
  Sugarbeets plant response rating: 0
[5]; [17]
  Plant response rating, Blackgrass: 0
[5]; [18]
  Plant response rating, Blackgrass: 0
[5]; [19]
  Blackgrass plant response rating: 0
[5]; [20]
  Plant response rating, Blackgrass: 0
[5]; [21]
  Plant response rating, Blackgrass: 0
[5]; [25]
  Blackgrass plant response rating: 0
[5]; [23]
  Blackgrass plant response rating: 2
[5]; [24]
  Blackgrass plant response rating: 0
[6]; [19]
  Wild oats plant response rating: 0
[6]; [20]
  Plant response rating, Wild oats: 0
[6]; [21]
  Plant response rating, Wild oats: 0
[6]; [22]
  Wild oats plant response rating: 0
[6]; [23]
  Wild oats plant response rating: 0
[6]; [24]
  Wild oats plant response rating: 0
[7]; [18]
  Plant response rating, Soybean: 1
[7]; [19]
  Soybean plant response rating: 1
[7]; [20]
  Plant response rating, Soybean: 0
[7]; [21]
  Plant response rating, Soybean: 0
[7]; [22]
  Soybean plant response rating: 0
[7]; [23]
  Soybean plant response rating: 3
[7]; [24]
  Soybean plant response rating: 0
[8]; [18]
  Plant response rating, Velvetleaf: 0
[8]; [19]
  Velvetleaf plant response rating: 3
[8]; [20]
  Plant response rating, Velvetleaf: 0
[8]; [21]
  Plant response rating, Velvetleaf: 0
[8]; [22]
  Velvetleaf plant response rating: 0
[8]; [23]
  Velvetleaf plant response rating: 0
[8]; [24]
  Velvetleaf plant response rating: 0
[9]; [19]
  Wheat plant response rating: 0
[9]; [20]
  Plant response rating, Wheat: 0
[9]; [21]
  Plant response rating, Wheat: 0
[9]; [22]
  Wheat plant response rating: 0
[9]; [23]
  Wheat plant response rating: 0
[9]; [24]
  Wheat plant response rating: 0
[10]; [17]
  Plant response rating, Giant foxtail: 0
[10]; [18]
  Plant response rating, Giant foxtail: 2
[10]; [19]
  Giant foxtail plant response rating: 6
[10]; [20]
  Plant response rating, Giant foxtail: 0
[10]; [21]
  Plant response rating, Giant foxtail: 6
[10]; [22]
  Giant foxtail plant response rating: 7
[10]; [23]
  Giant foxtail plant response rating: 8
[10]; [24]
  Giant foxtail plant response rating: 0
[11]; [26]
  Plant response rating, S. Flatsedge (0 to 10 scale, 0 is no effect, 10 is complete control): 0
[11]; [27]
  S. Flatsedge plant response rating (0 to 10 scale, 0 is no effect, 10 is complete control): 0
[11]; [28]
  S. Flatsedge plant response rating: 0
[11]; [29]
  S. Flatsedge plant response rating: 0
[12]; [26]
  Plant response rating, Ducksalad (0 to 10 scale, 0 is no effect, 10 is complete control): 0
[12]; [27]
  Ducksalad plant response rating (0 to 10 scale, 0 is no effect, 10 is complete control): 0
[12]; [28]
  Ducksalad plant response rating: 0
[12]; [29]
  Ducksalad plant response rating: 0
[13]; [17]
  Plant response rating, Crabgrass: 0
[13]; [18]
  Plant response rating, Crabgrass: 2
[13]; [19]
  Crabgrass plant response rating: 3
[13]; [20]
  Plant response rating, Crabgrass: 0
[13]; [21]
  Plant response rating, Crabgrass: 2
[13]; [22]
  Crabgrass plant response rating: 8
[13]; [23]
  Crabgrass plant response rating: 10
[13]; [24]
  Crabgrass plant response rating: 0
[14]; [17]
  Plant response rating, Corn: 0
[14]; [18]
  Plant response rating, Corn: 0
[14]; [19]
  Corn plant response rating: 0
[14]; [20]
  Plant response rating, Corn: 0
[14]; [21]
  Plant response rating, Corn: 0
[14]; [22]
  Corn plant response rating: 0
[14]; [23]
  Corn plant response rating: 0
[14]; [24]
  Corn plant response rating: 0
[15]; [18]
  Plant response rating, Morningglory: 6
[15]; [19]
  Morningglory plant response rating: 7
[15]; [20]
  Plant response rating, Morningglory: 0
[15]; [21]
  Plant response rating, Morningglory: 0
[15]; [22]
  Morningglory plant response rating: 0
[15]; [23]
  Morningglory plant response rating: 0
[15]; [24]
  Morningglory plant response rating: 3
[16]; [19]
  Rape plant response rating: 7
[16]; [20]
  Plant response rating, Rape: 0
[16]; [21]
  Plant response rating, Rape: 0
[16]; [22]
  Rape plant response rating: 0
[16]; [23]
  Rape plant response rating: 0
[16]; [24]
  Rape plant response rating: 0
